Data taken from US20100003217A1, “Compounds and Pharmaceutical Compositions for the Treatment of Viral Infections” (priority 2008, published 2010).

What was measured:
[1] = target: CYP2D6 (Homo sapiens, UniProt P10635); assay: Incubation with human recombinant CYP450 supersomes, 2D6; type: in vitro ADME; details: CYP450 2D6 supersomes, 60 min, 10 μM, average of two experiments
Procedure: Supersomes—Incubations were conducted in a final volume of 0.1 mL reaction buffer (50-100 mM potassium phosphate, pH 7.4 or 100 mM Tris-HCL, pH 7.4) according to protocol provided with each CYP450 supersome. Each reaction contained […] of CYP450 supersome, 1.3 mM NADP^+, 3.3 mM glucose-6-phosphate, 0.4 U/mL glucose-6-phosphate dehydrogenase, 3.3 mM MgCl2 and 10 μM Compound 1. Following incubation for 60 min at 37° C., 100 μL of stop solution (acetonitrile:methanol; 1:1) was added and samples centrifuged for 10 min at 10,000×g. The supernatant was then dried and reconstituted in 10 mM potassium phosphate, pH 5, further transferred to an HPLC glass vial and analyzed by HPLC-UV (described above).

[2] = Cytotoxicity assay (MTS), Zluc cells; type: cell-based, human; details: human; Zluc cells, 3 days (Luciferase Assay columns)
Procedure: The cytotoxicity assay measures the viability of cells after treatment with a test compound for 3 days in either GS4.1 cells or Zluc cells. […] The cytotoxicity assay is summarized as follows. Ninety-six-well tissue culture plates were seeded with GS4.1 or Zluc cells. Antiviral compound solutions were made up freshly in medium as 2×-concentrated stocks. Eight additional 3-fold drug dilutions were prepared from these stocks in medium for a total of 9 dilutions. At least four hours after the cells were seeded, drug treatment was initiated by adding one volume of each 2×-concentrated drug dilution to one volume of cells/medium in the tissue culture plates. Cells were then incubated for 3 days at 37° C./5% CO2. After 3 days of treatment, the CellTiter 96® Aqueous One Solution cell proliferation assay (Promega) was performed by adding the MTS solution to each well. The plates were then incubated at 37° C./5% CO2 for 3.5 hours. Plates were then read in a Victor^3V 1420 multilabel counter (Perkin Elmer) and CC50 concentrations were determined using Microsoft Excel and XLfit 4.1 software.

[3] = Rat plasma pharmacokinetics of total radioactivity after [^14C]-Compound 1; type: in vivo, male Sprague-Dawley rats
Procedure: A preliminary rat metabolism study was conducted with radiolabeled Compound 1. The compound was labeled with [^14C] in the C-8 position of the guanine moiety. The objectives of the study were to determine, 1) the plasma pharmacokinetics of total radioactivity, 2) the time-course of total radioactivity and the amount of 2′-C-methyl guanosine-5′-TP in liver, 3) the major route of excretion, and 4) the metabolic profile in excreta, liver, and plasma.
Isotopically diluted [^14C]-Compound 1 was administered intravenously to male Sprague-Dawley rats at 50 mg/kg or by oral gavage at 100 mg/kg.
The plasma concentration-time data for total radioactivity was analyzed using Microsoft® Office Excel 2003 to obtain the area under the concentration-time curve (AUC). AUC0-24 (area under the concentration-time curve from 0 to 24 h after dosing) was calculated using the linear trapezoidal rule and nominal sampling times. For the IV dose group, concentration at time zero was extrapolated from the concentration data for the first two time points. The maximum (peak) plasma concentrations (Cmax) and the time to peak concentrations (tmax) were the observed values. Descriptive statistics were prepared in Excel.
Radioanalyses of plasma samples were conducted. The plasma concentration data for total radioactivity expressed as μg equivalents/mL are summarized below: […]

[4] = system: S282T HCV replicon (184R-A cells); assay: microbe, parasite or virus in culture
Procedure: 3. The 184R-A cell line was derived by culturing wild-type replicon cells in the presence of 1 to 5 μM of Compound 1 for >100 days.
1. […] Huh-7 cells were seeded into column 1 of each plate at a similar density.
2. […] Eight additional 3-fold serial dilutions of each compound were prepared from the 2× stock in assay medium. Final drug concentrations ranged from 100 to 0.015 μM.
3. […] This setup was run in duplicate in each 96-well plate.
4. Cells were incubated with inhibitors for three days at 37° C./5% CO2.
1. After three days of drug treatment, media was removed from the plates via gentle tapping and the cells were fixed to the plates with 100 μL/well of 1:1 acetone:methanol.
2. After one minute of incubation at room temperature, plates were washed three times with 100 μL/well of ELISA wash solution and then blocked with 150 μL/well of 10% FBS-TNE.
3. After a one hour incubation at room temperature, plates were washed three times with 100 μL/well of ELISA wash solution, and then 100 μL/well of mouse anti-hepatitis C […] mAb (1 mg/mL stock diluted 1:1,500 in 10% FBS-TNE) was added.
4. Following 2 hours of incubation at 37° C., plates were washed three times with 100 μL/well of ELISA wash solution, and then 100 μL/well of HRP-goat anti-mouse antibody (diluted 1:4,000 in 10% FBS-TNE) was added.
4. After a one hour incubation period at 37° C., each plate was washed three times with 100 μL/well of ELISA wash solution. Color development was then initiated with 100 μL/well of OPD solution.
5. After a 30 minute incubation period in the dark at room temperature, reactions were stopped by adding 100 μL of 2NH2SO4 to each well.
6. The absorbance was measured at 490 nm on a Victor^3 V 1420 multilabel counter (Perkin Elmer). The percent inhibition of HCV replicon replication was calculated for each drug using an average of the duplicate wells.

[5] = system: rat primary hepatocytes; assay: In vitro intracellular half-life of 2′-C-methyl guanosine-5′-triphosphate (Compound 7) in rat primary hepatocytes; type: in vitro ADME; details: for Decay of Compound 7: level in cellular extracts: rat hepatocytes Rs458, after 24 h incubation with 10 μM [^14C]-Compound 1
Procedure: (§1) Primary hepatocytes were incubated with 10 μM [^14C]-Compound 1 ([…]) or [^14C]-2′-C-methyl guanosine (127 DPM/μmol) for 24 hours at which time the incubation medium was removed and the cell monolayer carefully washed two times with warm (37° C.) PBS and placed back in culture with drug-free medium. At selected times up to 24 hours, the medium was removed and the cell monolayers carefully washed two times with ice-cold PBS. Following the last wash, all PBS was carefully removed and the cell monolayers processed and extracted as previously described. […]

[6] = as above; type: in vitro ADME; details: primary hepatocytes (cellular extracts)
Procedure: as §1

[7] = rat hepatocytes, [^14C]-Compound 1 removed

CYP2D6, sequence (P10635 whole entry): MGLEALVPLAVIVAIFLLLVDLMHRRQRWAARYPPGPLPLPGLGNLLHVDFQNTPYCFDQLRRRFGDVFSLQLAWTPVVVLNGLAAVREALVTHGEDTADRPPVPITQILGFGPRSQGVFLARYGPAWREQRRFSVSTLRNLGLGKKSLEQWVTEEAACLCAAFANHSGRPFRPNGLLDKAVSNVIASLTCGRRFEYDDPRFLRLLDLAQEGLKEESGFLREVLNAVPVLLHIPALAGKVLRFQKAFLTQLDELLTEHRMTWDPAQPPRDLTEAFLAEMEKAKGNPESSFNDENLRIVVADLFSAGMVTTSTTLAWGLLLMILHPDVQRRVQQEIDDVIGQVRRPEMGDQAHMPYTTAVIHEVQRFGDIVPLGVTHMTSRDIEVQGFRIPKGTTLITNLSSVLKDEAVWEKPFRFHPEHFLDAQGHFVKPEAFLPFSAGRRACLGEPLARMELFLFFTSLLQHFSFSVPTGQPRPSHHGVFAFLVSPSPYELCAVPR

CC(C)(CO)C(=O)SCCOP(=O)(NCc1ccccc1)OC[C@H]1O[C@@H](n2cnc3c(=O)[nH]c(N)nc32)[C@](C)(O)[C@@H]1O (mixture of isomers) [Compound 1, 3-hydroxy-2,2-dimethyl-thiopropionic acid S-(2-{[(2R,3R,4R,5R)-5-(2-amino-6-oxo-1,6-dihydro-purin-9-yl)-3,4-dihydroxy-4-methyl-tetrahydro-furan-2-ylmethoxy]-benzylamino-phosphoryloxy}-ethyl) ester]
% Residual Compound 1 [1]: 102%
CC50 at 3 days [2]: > 100 µM
AUC0-24 of plasma total radioactivity ([3]; IV 50 mg/kg [^14C]-Compound 1): 36.0 hr.μg equivalent/mL
AUC0-24 of plasma total radioactivity ([3]; PO 100 mg/kg [^14C]-Compound 1): 15.4 hr.μg equivalent/mL
Fold shift from wild-type ([4]; 184R-A (S282T), EC50 in resistant line divided by EC50 in wild-type cells): 30 fold
EC50 ([4]; Hepatitis C virus): 9 µM

C[C@@]1(O)[C@H](O)[C@@H](COP(=O)(O)OP(=O)(O)OP(=O)(O)O)O[C@H]1n1cnc2c(=O)[nH]c(N)nc21 [Compound 7, [(2R)-2-methyl-β-D-ribofuranosyl]guanine 5′-triphosphate]
Decay of Compound 7: level in cellular extracts ([5]; decay time 0 h): 932 pmol/million cells
Decay of Compound 7: level in cellular extracts ([5]; decay time 1 h): 954 pmol/million cells
Decay of Compound 7: level in cellular extracts ([5]; decay time 4 h): 811 pmol/million cells
Decay of Compound 7: level in cellular extracts ([5]; decay time 8 h): 545 pmol/million cells
Decay of Compound 7: level in cellular extracts ([5]; decay time 24 h): 83.0 pmol/million cells
Compound 7 levels after 24 hours without drug [5, 7]: 83 pmol/million cells
reduction of Compound 7 levels after 24 hours without drug [5, 7]: 91%
Compound 7 levels at time zero ([5]; rat hepatocytes, after 24 h with 10 μM [^14C]-Compound 1): 932 pmol/million cells
half-life at 10 μM ([6]; rat hepatocytes Rs458, after 24 h incubation with 10 μM [^14C]-Compound 1, linear regression): 6.61 h
half-life at 10 μM ([6]; rat hepatocytes, following [^14C]-Compound 1): 6.61 h
